{
  "source": "ChEMBL document CHEMBL2417502",
  "about": "“Polyketides from the littoral plant associated fungus Pseudallescheria boydii” (2013)",
  "system": "A549",
  "assay": "Cytotoxicity against human A549 cells after 72 hrs by SRB assay",
  "assay_type": "functional",
  "conditions": "A549, 72 h",
  "data": [
    {"smiles": "CC[C@H](C)C1=C(OC)[C@H](O)[C@](C)(CC)C1=O", "values": [
      {"measurement": "GI50", "result": 41.3, "unit": "µM"}
    ]},
    {"smiles": "O=c1[nH]cc(F)c(=O)[nH]1", "note": "[FLUOROURACIL]", "values": [
      {"measurement": "GI50", "result": 3.6, "unit": "µM"}
    ]},
    {"smiles": "CO[C@@H]1C(=O)CC[C@]2(CO2)[C@@]1(O)[C@@]1(C)O[C@@H]1CC=C(C)C", "note": "[OVALICIN]", "values": [
      {"measurement": "GI50", "result": 4.1, "unit": "µM"}
    ]}
  ]
}
